# In BindingDB's records for doi:10.1016/j.bmcl.2010.01.042 (Bristol Myers Squibb, 2010):
# Target: Insulin-like growth factor 1 receptor (Homo sapiens) (UniProt P08069)
# Assay: Inhibition of IGFR1
# Sequence of Insulin-like growth factor 1 receptor (Homo sapiens) (P08069 whole entry, looked up): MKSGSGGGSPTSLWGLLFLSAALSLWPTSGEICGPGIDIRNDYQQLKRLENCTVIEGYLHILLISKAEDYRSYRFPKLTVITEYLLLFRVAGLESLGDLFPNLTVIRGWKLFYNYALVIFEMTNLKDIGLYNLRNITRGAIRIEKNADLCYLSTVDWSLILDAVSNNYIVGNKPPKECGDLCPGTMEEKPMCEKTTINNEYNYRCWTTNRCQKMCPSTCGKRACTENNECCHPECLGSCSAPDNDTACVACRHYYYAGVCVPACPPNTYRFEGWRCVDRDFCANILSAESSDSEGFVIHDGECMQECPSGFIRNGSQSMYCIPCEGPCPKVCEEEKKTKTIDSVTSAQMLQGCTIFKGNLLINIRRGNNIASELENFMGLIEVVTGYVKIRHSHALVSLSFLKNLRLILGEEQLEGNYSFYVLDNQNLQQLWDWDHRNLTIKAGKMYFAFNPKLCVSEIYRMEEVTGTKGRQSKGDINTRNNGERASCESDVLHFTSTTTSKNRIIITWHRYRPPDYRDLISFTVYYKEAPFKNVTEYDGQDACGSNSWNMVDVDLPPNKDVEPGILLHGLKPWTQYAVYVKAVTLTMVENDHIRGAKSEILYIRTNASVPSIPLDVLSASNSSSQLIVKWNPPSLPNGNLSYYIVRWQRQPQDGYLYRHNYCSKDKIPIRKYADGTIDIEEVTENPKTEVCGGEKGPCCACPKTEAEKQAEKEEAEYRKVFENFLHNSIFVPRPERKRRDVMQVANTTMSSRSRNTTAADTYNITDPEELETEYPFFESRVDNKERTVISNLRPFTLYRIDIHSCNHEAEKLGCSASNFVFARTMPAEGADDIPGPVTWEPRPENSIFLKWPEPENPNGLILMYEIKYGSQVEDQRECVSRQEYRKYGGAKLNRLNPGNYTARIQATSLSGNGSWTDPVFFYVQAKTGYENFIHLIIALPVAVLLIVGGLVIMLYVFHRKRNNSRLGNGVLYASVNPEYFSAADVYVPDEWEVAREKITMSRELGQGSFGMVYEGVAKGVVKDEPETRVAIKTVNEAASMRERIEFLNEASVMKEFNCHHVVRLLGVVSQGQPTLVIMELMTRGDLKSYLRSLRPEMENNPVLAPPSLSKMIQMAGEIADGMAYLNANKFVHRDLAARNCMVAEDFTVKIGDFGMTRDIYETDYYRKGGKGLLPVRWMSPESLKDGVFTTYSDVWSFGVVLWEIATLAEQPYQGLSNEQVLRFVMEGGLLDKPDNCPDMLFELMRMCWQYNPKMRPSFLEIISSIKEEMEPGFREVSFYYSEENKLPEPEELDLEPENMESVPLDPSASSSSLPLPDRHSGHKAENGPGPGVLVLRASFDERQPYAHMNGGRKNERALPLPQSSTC
smiles,measurement,value
"O=C(Nc1ccc(F)cc1F)c1cccnc1Nc1ccc(Oc2ccnc3[nH]ccc23)c(F)c1 [2-(4-(1H-pyrrolo[2,3-b]pyridin-4-yloxy)-3-fluorophenylamino)-N-(2,4-difluorophenyl)nicotinamide]",IC50,> 50 µM
